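These data come from cells grown in 96-well plates and exposed to compound for 48 hours at five concentrations. TGI is the concentration that stops growth completely.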
Assays:
Assay in all cases: inhibition of tumour cell growth, NCI panel, 48 h
IGROV1 ovarian = system: IGROV1 ovarian
PC-3 prostate = system: PC-3 prostate
A549 NSCLC = system: A549 NSCLC
UACC-62 melanoma = system: UACC-62 melanoma
SNB-75 CNS = system: SNB-75 CNS
HT29 colon = system: HT29 colon
SK-MEL-5 melanoma = system: SK-MEL-5 melanoma
OVCAR-3 ovarian = system: OVCAR-3 ovarian
EKVX NSCLC = system: EKVX NSCLC
HS 578T breast = system: HS 578T breast
MDA-MB-231 breast = system: MDA-MB-231 breast
SNB-19 CNS = system: SNB-19 CNS
U251 CNS = system: U251 CNS
OVCAR-4 ovarian = system: OVCAR-4 ovarian
TK-10 renal = system: TK-10 renal
MOLT-4 leukemia = system: MOLT-4 leukemia
UO-31 renal = system: UO-31 renal
RPMI-8226 leukemia = system: RPMI-8226 leukemia
COLO 205 colon = system: COLO 205 colon
KM12 colon = system: KM12 colon
DU-145 prostate = system: DU-145 prostate
K-562 leukemia = system: K-562 leukemia
LOX IMVI melanoma = system: LOX IMVI melanoma
SF-268 CNS = system: SF-268 CNS
HCT-15 colon = system: HCT-15 colon
RXF 393 renal = system: RXF 393 renal
CCRF-CEM leukemia = system: CCRF-CEM leukemia
HCT-116 colon = system: HCT-116 colon
A498 renal = system: A498 renal
HL-60(TB) leukemia = system: HL-60(TB) leukemia
NCI-H522 lung = system: NCI-H522 lung
SF-295 CNS = system: SF-295 CNS
MALME-3M melanoma = system: MALME-3M melanoma
SF-539 CNS = system: SF-539 CNS
SW-620 colon = system: SW-620 colon
M14 melanoma = system: M14 melanoma
NCI-H460 lung = system: NCI-H460 lung
SK-OV-3 ovarian = system: SK-OV-3 ovarian
SK-MEL-28 melanoma = system: SK-MEL-28 melanoma
MDA-MB-435 = system: MDA-MB-435
MCF7 breast = system: MCF7 breast
HOP-62 NSCLC = system: HOP-62 NSCLC
BT-549 breast = system: BT-549 breast
HOP-92 NSCLC = system: HOP-92 NSCLC
OVCAR-8 ovarian = system: OVCAR-8 ovarian
NCI-H23 lung = system: NCI-H23 lung
OVCAR-5 ovarian = system: OVCAR-5 ovarian
786-0 renal = system: 786-0 renal
HCC-2998 colon = system: HCC-2998 colon
NCI-H226 lung = system: NCI-H226 lung
NCI/ADR-RES ovarian = system: NCI/ADR-RES ovarian
UACC-257 melanoma = system: UACC-257 melanoma
SR leukemia = system: SR leukemia
ACHN renal = system: ACHN renal
SK-MEL-2 melanoma = system: SK-MEL-2 melanoma
SN12C renal = system: SN12C renal
MDA-N = system: MDA-N
CAKI-1 renal = system: CAKI-1 renal
T-47D breast = system: T-47D breast

Measured: TGI

CCOC(=O)[C@H](O)[C@@H](O)C(=O)NCc1ccc(C(=O)c2ccccc2)cc1
> 100 µM: all assays above

Cc1ccc(C)c(NC(=O)NCc2ccc(Cl)cc2)c1
63.5 µM: HOP-92 NSCLC
> 58.5 µM: SNB-19 CNS
> 36.2 µM: MOLT-4 leukemia
> 90.7 µM: ACHN renal
28.6 µM: RXF 393 renal
88.4 µM: A498 renal
37 µM: HOP-62 NSCLC
27.8 µM: SR leukemia
97.3 µM: NCI-H522 lung
52.7 µM: SK-OV-3 ovarian
> 27.6 µM: CCRF-CEM leukemia
69.8 µM: TK-10 renal
> 90.3 µM: 786-0 renal
98.8 µM: NCI-H226 lung
6.26 µM: SNB-75 CNS
98.6 µM: K-562 leukemia
> 87.9 µM: MALME-3M melanoma
> 92 µM: MDA-MB-231 breast
not listed: HCC-2998 colon
> 100 µM: all other assays above

Cc1cccc2c(N)c3cccc(C(=O)NCC[N+](C)(C)Cc4sccc4[N+](=O)[O-])c3nc12
32 µM: NCI-H226 lung
25.2 µM: MCF7 breast
18.1 µM: ACHN renal
18.6 µM: HT29 colon
29.1 µM: NCI-H522 lung
28.3 µM: HS 578T breast
35.5 µM: OVCAR-4 ovarian
35.9 µM: OVCAR-8 ovarian
77 µM: PC-3 prostate
79.3 µM: COLO 205 colon
43.9 µM: CAKI-1 renal
41.3 µM: SK-OV-3 ovarian
80.2 µM: MDA-N
33.1 µM: OVCAR-5 ovarian
61 µM: LOX IMVI melanoma
16.9 µM: A549 NSCLC
66.2 µM: BT-549 breast
96.8 µM: HCT-116 colon
27.7 µM: MALME-3M melanoma
33.4 µM: RXF 393 renal
36 µM: UACC-62 melanoma
32.8 µM: M14 melanoma
67.7 µM: MDA-MB-231 breast
30 µM: NCI-H23 lung
20.8 µM: HCC-2998 colon
28.2 µM: KM12 colon
14.4 µM: SF-539 CNS
not listed: RPMI-8226 leukemia | NCI-H460 lung
> 100 µM: all other assays above

CCCCCC(=O)Nc1nc[nH]c1C(N)=O
> 100 µM: all assays above

CC(=O)OC[C@@H]1[C@H]2CC[C@]3(C)[C@@H](OC(C)=O)CC[C@H]3[C@@H]2CC[C@H]1C1(C)SCCS1
not listed: UACC-62 melanoma | SK-OV-3 ovarian | SK-MEL-2 melanoma
> 25 µM: all other assays above

CCOC(=O)CC1(O)CCCCC1(Sc1ccc(C)cc1)Sc1ccc(C)cc1 (centres undefined)
65.9 µM: SK-MEL-2 melanoma
51 µM: NCI-H522 lung
85.3 µM: T-47D breast
84.4 µM: HS 578T breast
91.8 µM: MALME-3M melanoma
not listed: IGROV1 ovarian | RPMI-8226 leukemia
> 100 µM: all other assays above

CC(=O)Nc1ccc(CNc2cc(=O)n(C)c(=O)[nH]2)cc1
not listed: A498 renal
> 100 µM: all other assays above
